# Measurements as given in patent US11807625B2, “Capsid inhibitors for the prevention of HIV” (Gilead Sciences, Inc., priority 2019, dated 2023).
# Where “and” joins values, the source holds several entries; their conditions need not be identical. Equal entries are not always repeated.
# Assay: PK of compound of Formula (Ia) after single subcutaneous dose of solution formulations in beagle dogs
# Format: in vivo
# Conditions: individual dogs
# Procedure: Formulations containing the compound of Formula (Ia), or a pharmaceutically acceptable salt thereof, were prepared as solutions and optionally administered subcutaneously or intramuscularly to rats, rabbits, and/or dogs.
# (§1) A solution of about 400 mg/mL of the compound of Formula (Ia) having 17.00 w/w % water, 36.40 w/w % PEG 300, 35.20 w/w % of a sodium salt of a compound of Formula (Ia), 5.00 w/w % ethanol, and 6.40 w/w % poloxamer 188 was prepared. The solution was administered subcutaneously to male beagle dogs at a dose level of about 12 mg/kg and male Wistar Han rats at a dose level of about 50 mg/kg. The pharmacokinetic profiles were determined, and the results for dogs are summarized in Table and Table, while the results for rats are summarized in Table and Table below.
# as §1, with “500” for “400”, “14.06” for “17.00”, “30.12” for “36.40”
# A solution of about 300 mg/mL of the compound of Formula (Ia) having 23.33 w/w % water, 48.99 w/w % PEG 300, 26.47 w/w % of a sodium salt of a compound of Formula (Ia), and 1.21 w/w % poloxamer 188 was prepared. The solution was administered subcutaneously to male beagle dogs at a dose level of about 6 mg/kg and male Wistar Han rats at a dose level of about 50 mg/kg. The pharmacokinetic profiles were determined, and the results for dogs are summarized in Table and Table, while the results for rats are summarized in Table and Table below.
# as §1, with “18.80” for “17.00”, “40.25” for “36.40”, “34.38” for “35.20”, “1.57” for “6.40”
# as §1, with “500” for “400”, “16.29” for “17.00”, “34.88” for “36.40”, “41.92” for “35.20”, “1.91” for “6.40”
# as §1, with “20.90” for “17.00”, “44.72” for “36.40”, “and 34.38” for “35.20”, “(Ia)” for “(Ia), 5.00 w/w % ethanol, and 6.40 w/w % poloxamer 188”
# A solution of about 400 mg/mL of the compound of Formula (Ia) having 19.90 w/w % water, 42.59 w/w % PEG 300, 34.38 w/w % of a sodium salt of a compound of Formula (Ia), and 3.13 w/w % poloxamer 188 was prepared. The solution was administered subcutaneously to male beagle dogs at a dose level of about 12 mg/kg and male Wistar Han rats at a dose level of about 50 mg/kg. […]
compound,measurement,setting,value
CC(C)(C#Cc1ccc(-c2ccc(Cl)c3c(NS(C)(=O)=O)nn(CC(F)(F)F)c23)c([C@H](Cc2cc(F)cc(F)c2)NC(=O)Cn2nc(C(F)(F)F)c3c2C(F)(F)[C@@H]2C[C@H]32)n1)S(C)(=O)=O [compound of Formula (Ia)],Plasma concentration,"0 h, SC 6 mg/kg, solution V, 300 mg/mL",BLQ
same,Plasma concentration,"0 h, SC 12 mg/kg, solution T, 400 mg/mL",BLQ
same,Plasma concentration,"0 h, SC 12 mg/kg, solution U, 500 mg/mL",BLQ
same,Plasma concentration,"1.00 h, SC 6 mg/kg, solution V, 300 mg/mL",BLQ
same,Plasma concentration,"1.00 h, SC 12 mg/kg, solution T, 400 mg/mL, 12 mg/kg",10.5 nM and 4.75 nM and 2.96 nM
same,Plasma concentration,"1.00 h, SC 12 mg/kg, solution U, 500 mg/mL, 12 mg/kg",4.85 nM and 2.05 nM and 9.86 nM
same,Plasma concentration,"3.00 h, SC 6 mg/kg, solution V, 300 mg/mL, 6 mg/kg",BLQ and 3.25 nM
same,Plasma concentration,"3.00 h, SC 12 mg/kg, solution T, 400 mg/mL, 12 mg/kg",26.1 nM and 18.6 nM and 9.64 nM
same,Plasma concentration,"3.00 h, SC 12 mg/kg, solution U, 500 mg/mL, 12 mg/kg",22.9 nM and 7.00 nM and 36.1 nM
same,Plasma concentration,"8.00 h, SC 6 mg/kg, solution V, 300 mg/mL, 6 mg/kg",11.6 nM and 11.4 nM
same,Plasma concentration,"8.00 h, SC 12 mg/kg, solution T, 400 mg/mL, 12 mg/kg",84.5 nM and 50.3 nM
same,Plasma concentration,"8.00 h, SC 12 mg/kg, solution U, 500 mg/mL, 12 mg/kg",68.7 nM and 26.4 nM and 88.4 nM
same,Plasma concentration,"24.0 h, SC 6 mg/kg, solution V, 300 mg/mL, 6 mg/kg",25.7 nM and 22.6 nM
same,Plasma concentration,"24.0 h, SC 12 mg/kg, solution T, 400 mg/mL, 12 mg/kg",254 nM and 187 nM
same,Plasma concentration,"24.0 h, SC 12 mg/kg, solution U, 500 mg/mL, 12 mg/kg",101 nM and 92.7 nM and 207 nM
same,Plasma concentration,"48.0 h, SC 6 mg/kg, solution V, 300 mg/mL, 6 mg/kg",27.9 nM and 29.4 nM
same,Plasma concentration,"48.0 h, SC 12 mg/kg, solution T, 400 mg/mL, 12 mg/kg",166 nM and 380 nM and 179 nM
same,Plasma concentration,"48.0 h, SC 12 mg/kg, solution U, 500 mg/mL, 12 mg/kg",94.1 nM and 94.8 nM
same,Plasma concentration,"72.0 h, SC 6 mg/kg, solution V, 300 mg/mL, 6 mg/kg",29.6 nM and 31.5 nM
same,Plasma concentration,"72.0 h, SC 12 mg/kg, solution T, 400 mg/mL, 12 mg/kg",105 nM and 452 nM and 112 nM
same,Plasma concentration,"72.0 h, SC 12 mg/kg, solution U, 500 mg/mL, 12 mg/kg",62.3 nM and 64.0 nM
same,Plasma concentration,"96.0 h, SC 6 mg/kg, solution V, 300 mg/mL, 6 mg/kg",28.8 nM and 29.6 nM
same,Plasma concentration,"96.0 h, SC 12 mg/kg, solution T, 400 mg/mL, 12 mg/kg",89.8 nM and 523 nM and 83.8 nM
same,Plasma concentration,"96.0 h, SC 12 mg/kg, solution U, 500 mg/mL, 12 mg/kg",45.7 nM and 62.6 nM
same,Plasma concentration,"168 h, SC 6 mg/kg, solution V, 300 mg/mL, 6 mg/kg",34.5 nM and 41.4 nM
same,Plasma concentration,"168 h, SC 12 mg/kg, solution T, 400 mg/mL, 12 mg/kg",105 nM and 408 nM and 151 nM
same,Plasma concentration,"168 h, SC 12 mg/kg, solution U, 500 mg/mL, 12 mg/kg",55.9 nM and 49.6 nM and 187 nM
same,Plasma concentration,"336 h, SC 12 mg/kg, solution T, 400 mg/mL, 12 mg/kg",353 nM and 250 nM
same,Plasma concentration,"336 h, SC 12 mg/kg, solution U, 500 mg/mL, 12 mg/kg",155 nM and 187 nM
same,Plasma concentration,"504 h, SC 12 mg/kg, solution T, 400 mg/mL, 12 mg/kg",229 nM and 199 nM
same,Plasma concentration,"504 h, SC 12 mg/kg, solution U, 500 mg/mL, 12 mg/kg",166 nM and 129 nM
same,Plasma concentration,"672 h, SC 12 mg/kg, solution T, 400 mg/mL, 12 mg/kg",106 nM and 90.6 nM
same,Plasma concentration,"672 h, SC 12 mg/kg, solution U, 500 mg/mL, 12 mg/kg",106 nM and 101 nM and 38.7 nM
same,Plasma concentration,"840 h, SC 12 mg/kg, solution T, 400 mg/mL, 12 mg/kg",139 nM and 69.8 nM and 63.7 nM
same,Plasma concentration,"840 h, SC 12 mg/kg, solution U, 500 mg/mL, 12 mg/kg",107 nM and 69.7 nM and 41.2 nM
same,Plasma concentration,"1008 h, SC 12 mg/kg, solution T, 400 mg/mL, 12 mg/kg",71.1 nM and 74.2 nM
same,Plasma concentration,"1008 h, SC 12 mg/kg, solution U, 500 mg/mL, 12 mg/kg",83.5 nM and 61.1 nM and 30.4 nM
same,Plasma concentration,"1344 h, SC 12 mg/kg, solution T, 400 mg/mL, 12 mg/kg",35.6 nM and 30.6 nM
same,Plasma concentration,"1344 h, SC 12 mg/kg, solution U, 500 mg/mL, 12 mg/kg",38.5 nM and 22.5 nM
same,Plasma concentration,"1680 h, SC 12 mg/kg, solution T, 400 mg/mL, 12 mg/kg",34.6 nM and 17.3 nM
same,Plasma concentration,"1680 h, SC 12 mg/kg, solution U, 500 mg/mL, 12 mg/kg",25.7 nM and 27.7 nM and 10.5 nM
same,Plasma concentration,"2016 h, SC 12 mg/kg, solution T, 400 mg/mL, 12 mg/kg",7.9 nM (2×) and 19.6 nM
same,Plasma concentration,"2016 h, SC 12 mg/kg, solution U, 500 mg/mL, 12 mg/kg",10.7 nM and 13.8 nM and 6.40 nM
same,Plasma concentration,"2352 h, SC 12 mg/kg, solution T, 400 mg/mL, 12 mg/kg",7.6 nM and 5.7 nM
same,Plasma concentration,"2352 h, SC 12 mg/kg, solution U, 500 mg/mL, 12 mg/kg",8.8 nM and 10.2 nM and 3.45 nM
same,Plasma concentration,"3696 h, SC 6 mg/kg, solution V, 300 mg/mL",BLQ
same,Plasma concentration,"4032 h, SC 6 mg/kg, solution V, 300 mg/mL",BLQ
